Experimental findings from article PMC8716817 (Frontiers in Pharmacology, 2021) are described below.

One assay deals with T1, NaV1.8 (Rattus norvegicus, UniProt Q62968).
T1 construct: gene Scn10a
It is filed as cell-based.

The target of a further assay is T2, NaV1.7 (Rattus norvegicus, UniProt O08562).
T2 construct: gene Scn9a
As to the kind of experiment: whole-cell patch clamp, stable NaV1.[…] HEK cells (vincristine pre-incubated). It is filed as cell-based.

T2 sequence (O08562 whole entry): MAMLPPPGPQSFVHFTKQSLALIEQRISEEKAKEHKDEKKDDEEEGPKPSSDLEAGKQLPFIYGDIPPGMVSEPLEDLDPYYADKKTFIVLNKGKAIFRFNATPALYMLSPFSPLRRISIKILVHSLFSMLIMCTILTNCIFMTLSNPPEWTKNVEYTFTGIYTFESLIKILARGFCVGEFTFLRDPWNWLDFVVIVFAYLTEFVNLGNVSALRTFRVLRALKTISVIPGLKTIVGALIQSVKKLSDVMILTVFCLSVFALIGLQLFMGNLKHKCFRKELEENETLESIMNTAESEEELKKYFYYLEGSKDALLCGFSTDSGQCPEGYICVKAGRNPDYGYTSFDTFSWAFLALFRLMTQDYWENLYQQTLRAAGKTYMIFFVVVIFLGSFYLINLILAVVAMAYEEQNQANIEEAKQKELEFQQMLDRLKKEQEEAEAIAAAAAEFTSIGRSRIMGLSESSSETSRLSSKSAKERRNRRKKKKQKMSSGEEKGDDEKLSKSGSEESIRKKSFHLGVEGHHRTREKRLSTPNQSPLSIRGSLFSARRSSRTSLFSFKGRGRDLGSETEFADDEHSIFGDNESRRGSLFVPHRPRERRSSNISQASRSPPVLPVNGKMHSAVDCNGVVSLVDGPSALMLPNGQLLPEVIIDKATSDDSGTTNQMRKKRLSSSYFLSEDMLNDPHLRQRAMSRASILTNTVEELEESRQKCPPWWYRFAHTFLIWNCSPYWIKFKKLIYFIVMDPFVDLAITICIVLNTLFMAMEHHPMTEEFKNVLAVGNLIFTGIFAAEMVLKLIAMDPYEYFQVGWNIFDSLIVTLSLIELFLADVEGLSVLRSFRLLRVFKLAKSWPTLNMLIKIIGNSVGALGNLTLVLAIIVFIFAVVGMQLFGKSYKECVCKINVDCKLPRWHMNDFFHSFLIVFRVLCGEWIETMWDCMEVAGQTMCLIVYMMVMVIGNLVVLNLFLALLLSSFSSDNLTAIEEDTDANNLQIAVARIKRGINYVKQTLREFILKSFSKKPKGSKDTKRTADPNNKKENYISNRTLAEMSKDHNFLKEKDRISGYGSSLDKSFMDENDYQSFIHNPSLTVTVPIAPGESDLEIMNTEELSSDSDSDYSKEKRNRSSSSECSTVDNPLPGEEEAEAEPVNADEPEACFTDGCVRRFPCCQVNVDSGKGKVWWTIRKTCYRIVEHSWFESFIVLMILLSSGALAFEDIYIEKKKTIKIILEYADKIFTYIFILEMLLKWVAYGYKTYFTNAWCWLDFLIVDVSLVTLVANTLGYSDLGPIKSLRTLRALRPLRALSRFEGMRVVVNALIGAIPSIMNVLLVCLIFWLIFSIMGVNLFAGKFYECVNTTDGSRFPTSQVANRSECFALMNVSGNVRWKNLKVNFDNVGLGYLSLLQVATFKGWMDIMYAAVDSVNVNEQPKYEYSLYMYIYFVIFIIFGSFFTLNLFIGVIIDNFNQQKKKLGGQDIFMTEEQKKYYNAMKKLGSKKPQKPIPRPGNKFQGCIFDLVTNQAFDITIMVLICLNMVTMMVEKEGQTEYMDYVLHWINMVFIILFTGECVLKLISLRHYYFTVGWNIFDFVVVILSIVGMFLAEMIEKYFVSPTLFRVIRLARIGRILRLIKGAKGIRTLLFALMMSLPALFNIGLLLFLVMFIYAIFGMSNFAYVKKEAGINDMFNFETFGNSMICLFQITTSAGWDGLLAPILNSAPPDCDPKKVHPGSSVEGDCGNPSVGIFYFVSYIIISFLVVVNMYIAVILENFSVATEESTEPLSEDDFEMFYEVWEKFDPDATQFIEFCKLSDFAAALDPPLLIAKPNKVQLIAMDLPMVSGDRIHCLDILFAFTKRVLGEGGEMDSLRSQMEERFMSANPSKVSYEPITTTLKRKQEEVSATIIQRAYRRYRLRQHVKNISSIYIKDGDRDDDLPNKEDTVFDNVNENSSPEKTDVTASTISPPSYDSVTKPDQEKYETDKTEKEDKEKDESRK
T1 sequence (Q62968 whole entry): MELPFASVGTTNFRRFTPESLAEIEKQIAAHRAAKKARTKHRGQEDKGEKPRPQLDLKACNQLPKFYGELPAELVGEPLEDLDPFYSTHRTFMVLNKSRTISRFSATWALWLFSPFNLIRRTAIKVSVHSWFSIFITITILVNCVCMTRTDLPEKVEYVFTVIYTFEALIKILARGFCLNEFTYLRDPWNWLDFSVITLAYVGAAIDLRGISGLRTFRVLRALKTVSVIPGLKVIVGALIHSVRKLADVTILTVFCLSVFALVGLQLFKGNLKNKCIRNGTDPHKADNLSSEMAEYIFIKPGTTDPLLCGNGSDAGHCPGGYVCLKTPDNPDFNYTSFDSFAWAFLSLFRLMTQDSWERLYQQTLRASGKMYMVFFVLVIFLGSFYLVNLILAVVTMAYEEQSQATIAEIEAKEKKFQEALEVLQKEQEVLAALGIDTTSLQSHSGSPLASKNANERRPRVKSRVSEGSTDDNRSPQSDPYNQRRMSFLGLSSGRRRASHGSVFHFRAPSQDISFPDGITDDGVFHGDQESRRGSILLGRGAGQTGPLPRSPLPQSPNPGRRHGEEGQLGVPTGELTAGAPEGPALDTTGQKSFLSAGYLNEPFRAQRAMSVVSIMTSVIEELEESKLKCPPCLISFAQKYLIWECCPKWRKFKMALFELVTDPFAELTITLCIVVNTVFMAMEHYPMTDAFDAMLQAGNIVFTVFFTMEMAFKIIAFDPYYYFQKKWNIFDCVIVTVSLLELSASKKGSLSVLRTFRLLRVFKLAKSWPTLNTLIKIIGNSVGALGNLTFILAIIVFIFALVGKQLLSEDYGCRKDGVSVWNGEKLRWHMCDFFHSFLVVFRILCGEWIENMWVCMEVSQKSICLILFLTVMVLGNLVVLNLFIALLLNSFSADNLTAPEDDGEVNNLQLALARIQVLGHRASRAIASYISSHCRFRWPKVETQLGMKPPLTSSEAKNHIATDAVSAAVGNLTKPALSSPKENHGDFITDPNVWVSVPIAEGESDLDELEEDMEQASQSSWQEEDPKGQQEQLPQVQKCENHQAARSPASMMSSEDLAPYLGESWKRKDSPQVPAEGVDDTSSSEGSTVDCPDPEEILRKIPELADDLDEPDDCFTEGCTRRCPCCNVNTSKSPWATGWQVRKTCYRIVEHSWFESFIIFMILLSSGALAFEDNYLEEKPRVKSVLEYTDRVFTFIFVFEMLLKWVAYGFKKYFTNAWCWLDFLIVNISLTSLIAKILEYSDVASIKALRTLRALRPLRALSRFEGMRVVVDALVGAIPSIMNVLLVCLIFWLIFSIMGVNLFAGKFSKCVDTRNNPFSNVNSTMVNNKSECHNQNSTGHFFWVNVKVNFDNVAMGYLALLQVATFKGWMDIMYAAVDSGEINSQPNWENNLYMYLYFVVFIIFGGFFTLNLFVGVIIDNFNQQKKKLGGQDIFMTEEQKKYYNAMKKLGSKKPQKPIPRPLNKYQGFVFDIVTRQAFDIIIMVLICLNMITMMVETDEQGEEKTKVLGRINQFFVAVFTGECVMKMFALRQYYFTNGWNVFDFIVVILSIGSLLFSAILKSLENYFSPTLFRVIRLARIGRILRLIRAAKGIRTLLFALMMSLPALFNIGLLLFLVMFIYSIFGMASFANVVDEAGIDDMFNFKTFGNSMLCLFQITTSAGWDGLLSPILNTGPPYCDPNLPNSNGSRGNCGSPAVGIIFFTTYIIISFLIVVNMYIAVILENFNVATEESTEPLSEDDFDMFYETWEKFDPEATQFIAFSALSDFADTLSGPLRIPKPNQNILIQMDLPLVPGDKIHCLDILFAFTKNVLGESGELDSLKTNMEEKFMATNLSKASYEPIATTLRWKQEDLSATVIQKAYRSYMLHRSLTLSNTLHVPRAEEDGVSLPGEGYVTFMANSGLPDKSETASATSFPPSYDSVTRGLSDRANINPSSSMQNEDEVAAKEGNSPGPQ

Consider `OCc1ccc(O[C@@H]2O[C@H](CO)[C@@H](O)[C@H](O)[C@H]2O)cc1` [GAS, Gastrodin], for which the results for the IC50 against NaV1.8 and against NaV1.7 were 67.5 ± 20.7 µM and 25.9 ± 0.98 µM, respectively.

Broadly, the IC50 is the concentration needed to halve the response being measured. Low values mean inhibition by little substance, high ones a need for much substance.
